Results on 1 compound are retold here after paper PMC8693235, “Biocatalytic kinetic resolution of D,L-pantolactone by using a novel recombinant D-lactonase” (RSC Advances, 2020).

This assay deals with T1, TSDL (D-lactonase) (Thermothielavioides terrestris, UniProt G2R1T8).
T1 construct: gene THITE_2046186; 421 aa, about 45 kDa on SDS-PAGE; pET-28a(+) NcoI/XhoI, E. coli BL21(DE3), intracellular; used as whole cells
T1 sequence (G2R1T8 1-421): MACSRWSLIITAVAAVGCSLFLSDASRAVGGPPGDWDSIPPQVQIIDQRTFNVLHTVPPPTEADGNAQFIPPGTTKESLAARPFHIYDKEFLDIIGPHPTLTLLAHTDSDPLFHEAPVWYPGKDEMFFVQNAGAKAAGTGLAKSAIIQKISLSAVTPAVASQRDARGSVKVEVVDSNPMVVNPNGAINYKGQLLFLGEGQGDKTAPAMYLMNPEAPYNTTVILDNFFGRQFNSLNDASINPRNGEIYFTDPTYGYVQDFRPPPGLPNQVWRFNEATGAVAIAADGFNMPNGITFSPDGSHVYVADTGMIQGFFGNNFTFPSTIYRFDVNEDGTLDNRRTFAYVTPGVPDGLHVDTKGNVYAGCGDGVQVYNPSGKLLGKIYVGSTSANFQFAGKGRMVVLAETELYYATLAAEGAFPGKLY
In words: whole-cell hydrolysis of D,L-pantolactone, HPLC and chiral HPLC. To be noted: racemic D,L-pantolactone; recombinant E. coli (TSDL) whole cells; pH 7.0, 30 °C; 5% NH3·H2O for pH control. It is filed as cell-based.

Molecules are shown by their SMILES.

With `CC1(C)COC(=O)[C@@H]1O` [D-PL, D-pantolactone], the “whole-cell hydrolysis of D,L-pantolactone, HPLC and chiral HPLC” value is “The recombinant TSDL exhibited high hydrolysis activity and enantioselectivity toward D-PL”.
